Read-outs that look alike come from different tables or passages of the source.
Assays:
[1] = biological target: T1, N. fowleri Nfa-1 hemerythrin (Naegleria fowleri, UniProt Q9NH76); experiment: biochemical
T1 construct: made in house; host or cells: E. coli
Description: (§1) The N. fowleri Nfa-1 gene (360 bp, GenBank Accession No. AF230370) was amplified by PCR from genomic N. fowleri DNA using PCR primers that included the Nde1 and Sap1 restriction enzyme sites for subsequent cloning into the Nde1 and Sap1 sites of the bacterial expression vector pTwin1 (forward primer with Nde1 site underlined; ATG start codon is indicated in bold: SEQ ID NO: 1 5′-[…]-3′, reverse primer with Sap1 site underlined: SEQ ID NO: 2 5′-[…]-3′), which contained a thiol-inducible intein protease fused to a chitin-binding domain. Recombinant Nfa-1 protein was produced in E. coli and purified by chitin-agarose chromatography followed by cleavage and elution of the purified Nfa-1 protein by 40 mM dithiothreitol (DTT) and subsequent size-exclusion chromatography purification.
(§2) Enzymatic oxidase activity, kinetics and pharmacological drug inhibition assays of recombinant N. fowleri Nfa-1 hemerythrin were determined in vitro using NADH or NADPH as the substrate and electron donor and ferricyanide as electron acceptor. Various drugs and inhibitors specific for xanthine oxidase-like enzymes, NAD(P)H oxidases, or NADH peroxidase were included in the pharmacological inhibition assays.

[2] = biological target: T1, N. fowleri Nfa-1 hemerythrin; experiment: Initial-rate enzyme kinetics of Nfa-1 hemerythrin using NADH or NADPH as substrates; type: biochemical; conditions: substrate 10-200 μM, ferricyanide 200 μM, 40 sec at 23° C., Michaelis-Menten analysis; for Km: read-out: apparent Km
Description: as §1, §2
Enzyme kinetics were determined using NADH or NADPH at 10-200 μM concentration as electron donor and ferricyanide (200 μM) as electron acceptor for initial-rate enzyme kinetics of 40 sec at 23° C.

[3] = test system: Naegleria fowleri strain Nf69 (ATCC 30215); experiment: LDH cytotoxicity assay of N. fowleri amoebae co-cultured with CHO cells; conditions: ATCC30215, CHO, 13 h, read-out: IC50, protection from N. fowleri cytotoxicity
Description: Naegleria fowleri strain Nf69 (ATCC 30215) was cultivated at about 33° C. in modified Nelson's medium (about 1 mM Na2HPO4, about 1 mM KH2PO4, about 2.05 mM NaCl, about 16.2 μM MgSO4, about 27.2 μM CaCl2), about 0.17 g/L DIFCO Liver infusion broth, about 9.4 mM glucose) supplemented with about 10% heat-inactivated fetal bovine serum. For cytotoxicity assays, Chinese hamster ovary (CHO) cells were grown at about 37° C. in DMEM medium supplemented with about 10% fetal bovine serum until cultures reached about 70-80% confluency. Subsequently cultures were infected with N. fowleri cells at a ratio of 1 N. fowleri amoeba per 5-10 CHO cells and co-cultivated overnight for about 13 hours at about 37° C. The cytotoxicity effect of N. fowleri amoebae on CHO cells was measured by an LDH-based cytotoxicity assay that quantifies the release of lactate dehydrogenase (LDH) from dead cells at 490 nm wavelength absorbance for calculation of amoeba-induced cytotoxicity to the mammalian host cells.
Cytotoxicity of Naegleria fowleri amoebae was measured with CHO cells co-cultured with N. fowleri for about 13 hours at about 37° C. using the LDH cytotoxicity assay (infection ratio of 1 amoeba cell per 5-10 CHO cells) as described above.

[4] = test system: Acanthamoeba castellani (ATCC strain 50370); experiment: microbe, parasite or virus in culture; conditions: Acanthamoeba castellanii, ATCC50370, CHO, 19 h, read-out: IC50, protection against A. castellani cytotoxicity
[5] = recombinant N. fowleri Nfa-1 oxidase in vitro, read-out: Ki, inhibition of Nfa-1 enzyme activity

T1 sequence (Q9NH76 whole entry): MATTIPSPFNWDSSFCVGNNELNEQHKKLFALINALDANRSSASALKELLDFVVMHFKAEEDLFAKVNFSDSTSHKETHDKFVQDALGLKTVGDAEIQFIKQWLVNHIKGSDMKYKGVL

Row | SMILES | Ki [1, 5] [µM] | Ki [1] [µM] | IC50 [3] [µM] | also measured
1 | O=[N+]([O-])[O-].[Ag+] [AgNO3] | 345 | – | – | –
2 | NC(=O)C1=CN([C@@H]2O[C@H](COP(=O)(O)OP(=O)(O)OC[C@H]3O[C@@H](n4cnc5c(N)ncnc54)[C@H](O)[C@@H]3O)[C@@H](O)[C@H]2O)C=CC1 [NADH] | – | – | – | apparent kat [2]: 4.4 s⁻¹; Km [2]: 64.5 µM
3 | c1ccc2c(c1)[I+]c1ccccc1-2 [DPI, diphenyleneiodonium chloride] | – | 19 | 49 | –
4 | OO [Formula H2O2, H2O2] | – | – | – | stimulation of Nfa-1 enzyme activity ([1]; NADH peroxidase activator, FIG. 9): 9.7%
5 | NC(=O)C1=CN([C@@H]2O[C@H](COP(=O)(O)OP(=O)(O)OC[C@H]3O[C@@H](n4cnc5c(N)ncnc54)[C@H](OP(=O)(O)O)[C@@H]3O)[C@@H](O)[C@H]2O)C=CC1 [NADPH] | – | – | – | apparent kat [2]: 3.3 s⁻¹; Km [2]: 22.3 µM
6 | O=c1[nH]cnc2nc[nH]c12 [hypoxanthine] | – | 1000 | 497 | –
7 | O=C(O)c1cc[c]([Hg][OH])cc1 [pHMB, para-hydroxymercuribenzoate] | – | 78 | – | –
8 | Oc1ncnc2[nH]ncc12 [Allopurinol] | 134 | – | 48 | IC50 [4]: 620 µM
9 | COc1cc(C(C)=O)ccc1O [Apocynin] | 17 | – | 15 | IC50 [4]: 174 µM
